Laboratory results from patent US8022219B2, “2-hydroxymethy1-3,4,5-trihydroxy-1-(4-pentyloxybenzyl) piperidine as glucosylceramide synthase (Gcs) inhibitor” (Actelion Pharmaceuticals Ltd., priority 2003, dated 2011).

Assays:
[1] = biological target: T1, human recombinant GCS expressed in insect cells (Homo sapiens, UniProt Q16739); test: Inhibition of GCS; format: biochemical; settings: read-out: Inhibition of glucosylceramide synthase (IC50 μM)
T1 construct: made in house; host or cells: insect cells
T1 sequence (Q16739 1-394): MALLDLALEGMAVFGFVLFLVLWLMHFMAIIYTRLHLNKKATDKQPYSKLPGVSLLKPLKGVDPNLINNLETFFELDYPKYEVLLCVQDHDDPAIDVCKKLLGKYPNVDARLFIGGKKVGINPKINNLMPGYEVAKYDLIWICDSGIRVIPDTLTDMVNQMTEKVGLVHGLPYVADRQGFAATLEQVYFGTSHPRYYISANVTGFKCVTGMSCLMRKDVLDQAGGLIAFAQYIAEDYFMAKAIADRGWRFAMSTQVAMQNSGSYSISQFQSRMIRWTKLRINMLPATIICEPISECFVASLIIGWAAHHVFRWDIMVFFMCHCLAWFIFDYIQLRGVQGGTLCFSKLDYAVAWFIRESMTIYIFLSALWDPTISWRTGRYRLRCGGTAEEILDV
Method: The assay for inhibition of GCS was performed essentially as described in Platt et al., J. Biol. Chem., 1994, 269, 27108, the enzyme source being human recombinant GCS expressed in insect cells.

[2] = biological target: T2, non-lysosomal-β-glucocerebrosidase (Homo sapiens, UniProt Q9HCG7); test: Inhibition of non-lysosomal-β-glucocerebrosidase; format: biochemical; settings: whole cell extracts of MCF7 as enzyme source; 5 mM 4-MU β-glucoside; 0.2M citrate/phosphate pH 5.8
T2 construct: whole cell extracts of MCF7 (a human breast carcinoma cell line) was used as the source of the enzyme; endogenous in cells; host or cells: MCF7 whole cell extract
T2 sequence (Q9HCG7 1-927): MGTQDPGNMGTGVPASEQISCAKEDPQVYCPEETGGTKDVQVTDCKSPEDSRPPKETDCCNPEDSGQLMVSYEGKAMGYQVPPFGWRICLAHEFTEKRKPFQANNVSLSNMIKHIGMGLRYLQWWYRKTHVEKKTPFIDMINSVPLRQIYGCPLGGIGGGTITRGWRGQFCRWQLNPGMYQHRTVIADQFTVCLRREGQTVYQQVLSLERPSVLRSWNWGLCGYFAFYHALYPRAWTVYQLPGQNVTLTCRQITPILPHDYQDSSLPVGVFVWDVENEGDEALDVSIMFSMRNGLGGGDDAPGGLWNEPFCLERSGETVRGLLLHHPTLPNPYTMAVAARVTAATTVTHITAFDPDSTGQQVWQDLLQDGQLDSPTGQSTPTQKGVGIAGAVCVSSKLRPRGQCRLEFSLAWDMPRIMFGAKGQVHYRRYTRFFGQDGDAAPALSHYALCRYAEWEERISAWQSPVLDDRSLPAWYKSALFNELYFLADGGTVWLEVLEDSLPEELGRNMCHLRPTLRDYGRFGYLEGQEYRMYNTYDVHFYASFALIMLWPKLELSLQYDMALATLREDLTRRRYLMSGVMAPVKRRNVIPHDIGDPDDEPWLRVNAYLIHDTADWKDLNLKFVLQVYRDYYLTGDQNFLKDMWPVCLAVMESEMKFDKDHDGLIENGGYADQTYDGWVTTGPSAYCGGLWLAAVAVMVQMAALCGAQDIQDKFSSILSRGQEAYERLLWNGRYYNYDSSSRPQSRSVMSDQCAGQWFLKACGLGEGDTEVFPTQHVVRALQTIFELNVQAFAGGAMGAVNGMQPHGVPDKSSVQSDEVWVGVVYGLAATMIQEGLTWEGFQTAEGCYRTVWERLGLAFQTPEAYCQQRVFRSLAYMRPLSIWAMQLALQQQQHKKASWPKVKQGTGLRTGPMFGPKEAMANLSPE
Method: Inhibition of Non-Lysosomal-β-Glucocerebrosidase
The assay for inhibition of non-lysosomal-β-glucocerebrosidase was essentially carried out as described in Overkleeft, H. S. et al., J. Biol. Chem., 1998, 273, 26522-26527, with the following differences: whole cell extracts of MCF7 (a human breast carcinoma cell line) was used as the source of the enzyme instead of splenic membrane suspensions; 5 mM instead of 3 mM, 4-MU β-glucoside was used as substrate and 0.2M citrate/phosphate (pH 5.8) was used instead of McIlvaine buffer.

- IC50 [1]: 4.8 µM
- IC50 [2]: 2.5 µM
SMILES: CCCCCOc1ccc(CN2C[C@H](O)[C@@H](O)[C@@H](O)[C@@H]2CO)cc1 [Example 1, 3,4,5-Piperidinetriol, 2-(hydroxymethyl)-1-[(4-(pentyloxy)phenyl)methyl]-, (2S,3S,4R,5S)]
